Laboratory results from patent publication US10829493B2, “Compositions and methods for treating KIT- and PDGFRA-mediated diseases” (Blueprint Medicines Corporation, priority 2019, dated 2020).

Columns and labels:
CYP2C9 = CYP2C9 (Homo sapiens (Human), UniProt P11712); test: CYP inhibition in human liver microsomes, CYP2C9 (diclofenac); type: in vitro ADME; conditions: pooled human liver microsomes, substrate diclofenac
Description: (§1) In vitro studies in human liver microsomes were run according the standard method. […] The samples were then analyzed by LC-MS/MS for the quantification of the probe substrate left after the reaction and the IC50 values were determined by non-linear regression. The substrates for CYP2C9, CYP2D6, CYP3A4 were diclofenac, dextromethorphan and midazolam/testosterone respectively.

[1] = Pharmacokinetics following single intravenous and oral administration in rats; type: in vivo, Sprague-Dawley rats
Description: Assessment of pharmacokinetics following single intravenous and oral administration in rats: 3 Sprague-Dawley rats were employed for each compound for each route of administration (iv or oral). For iv administration, 1 mg/kg (dose volume=5 mL/kg) of each compound was administered by intravenous route via […] injection; whereas for oral route, 2.5 mg/kg (dose volume=5 mL/kg) was administered via oral gavage. Blood samples were obtained via tail vein at predose, 0.083, 0.25, 0.5, 1, 2, 4 and 8 hr. In addition, blood samples were also obtained at 24 hr via cardiac puncture (under anesthesia with Isoflurane) for terminal bleeding. All the blood samples were analyzed for the drug concentrations via LC/MS-MS. Pharmacokinetic parameters such as Cmax, Tmax, AUClast, AUCinf, MRTlast, MRTinf, T1/2, Vss and CL were obtained by non-compartmental analysis (NCA). Further, unbound clearance (CLu) was obtained as follows: Clu=Cl/fu,plasma.
% F was calculated as follows: % F=[AUCinf(oral)/Dose]/[AUCinf(iv)/Dose]*100 (Zhivkova & Doytchinova, Molecular Pharmaceuticals 10:3758-68 (2013)).

CYP2D6 = CYP2D6 (Homo sapiens (Human), UniProt P10635); test: CYP inhibition in human liver microsomes, CYP2D6 (dextromethorphan); type: in vitro ADME; conditions: pooled human liver microsomes, substrate dextromethorphan
Description: as §1

wt KIT kinase = wt KIT kinase (Homo sapiens (Human), UniProt P10721); test: Wild-type KIT binding assay (Kd determination, phage-tagged kinase, qPCR)
Description: Kd Determinations. For most assays, including wt KIT kinase, kinase-tagged T7 phage strains were prepared in an E. coli host derived from the BL21 strain. E. coli were grown to log-phase and infected with T7 phage and incubated with shaking at 32° C. until lysis. […] The liganded beads were blocked with excess biotin and washed with blocking buffer (SeaBlock (Pierce), 1% BSA, 0.05% Tween 20, 1 mM DTT) to remove unbound ligand and to reduce non-specific binding. […] Test compounds were prepared as 111× stocks in 100% DMSO. Kds were determined using an 11-point 3-fold compound dilution series with three DMSO control points. […] The compounds were then diluted directly into the assays such that the final concentration of DMSO was 0.9%. All reactions were performed in polypropylene 384-well plate. Each was a final volume of 0.02 ml. […] The kinase concentration in the eluates was measured by qPCR.
Binding Constants (Kds). Binding constants (Kds) were calculated with a standard dose-response curve using the Hill equation: Response=Background+Signal−Background 1+(KdHill Slope/DoseHill Slope). The Hill Slope was set to −1. Curves were fitted using a non-linear least square fit with the Levenberg-Marquardt algorithm.

KIT D816V [2] = biological target: KIT D816V (Homo sapiens (Human), UniProt P10721, D816V/V560G); test: HMC1.2 autophosphorylation assay (phospho-Y719 KIT AlphaLISA); type: cell-based; conditions: HMC1.2 cell line, KIT autophosphorylation at tyrosine 719, 90 minutes; read-out: KIT (P-KIT HMC1.2 (nM))
Description: 10,000 HMC1.2 cells were incubated in 22 μL culture media (phenol-red free IMDM, no serum) in each well of a 384-well plate and serum starved overnight in a tissue culture incubator (5% CO2, 37° C.). […] 10 μL of 100 μg/mL streptavidin donor beads (Perkin Elmer) were added to each well, blocked from light with solid black adhesive and shaken at 300 rpm at room temperature for 2 hours. Fluorescence signal was obtained on Envision (Perkin Elmer) by AlphaScreen 384 well HTS protocol.

PDGFRα D842V = PDGFRα D842V (Homo sapiens (Human), UniProt P16234, D842V); test: PDGFRα D842V biochemical enzymatic activity assay (EZReader 2 mobility shift); conditions: at APPKM for ATP, 25 μM ATP, 90 minutes
Excerpt: (§2) PDGFRα and KIT enzymatic activity was monitored using the Perkin Elmer electrophoretic mobility shift technology platform, the EZReader 2.
(§3) Within the linear, steady-state phase of the kinase enzymatic reaction, the mixed pool of phosphorylated (product) and non-phosphorylated (substrate) peptides was passed through the microfluidic system of the PerkinElmer EZ Reader 2, under an applied electric potential difference. The presence of the phosphate group on the product peptide provided a difference in mass and charge between that of the substrate peptide, resulting in a separation of the substrate and product pools in the sample (Perrin et al., Expert Opin Drug Discovery 2010 Jan. 5(1):51-63).
(§4) As the product and substrate peptide mixture passes the lasers within the instrument, these pools are detected (λex=488 nm, λem=568 nm) and resolved as separate peaks. The ratio between these peaks reflects the activity of the compound at that concentration, in that well, under those conditions.
Inhibition of KIT (D816V) PDGFRα (D842V) Mutant Biochemical Enzymatic Activity
(§5) All test articles were dissolved in 100% DMSO at a stock concentration of 10 mM. A 100×, 10-point, 4-fold serial dilution of all test compounds was created in 100% DMSO, starting at a relevant concentration, usually 1 mM. A volume of 0.130 μL of each concentration was transferred to the relevant well of a 384-well assay plate (Greiner 781 201) using a TTPLabtech Mosquito nano-liter dispenser. Using the Multidrop, the remaining constituents of the reaction were then added to the 0.130 μL of compound as follows:
The reaction was stopped by the addition of 70 μl of Stop buffer (100 mM HEPES pH 7.5, 0.015% Brij 35, 35 mM EDTA and 0.2% of Coating Reagent 3, Caliper Lifesciences). The plate was read on a Caliper EZReader 2.

KIT D816V [3] = biological target: KIT D816V (Homo sapiens (Human), UniProt P10721, D816V); test: KIT D816V biochemical enzymatic activity assay (EZReader 2 mobility shift); conditions: at APPKM for ATP, 20 μM ATP, 60 minutes
Excerpt: as §2, §3, §4, §5
The plate was read on a Caliper EZReader 2.

PDGFRα D842V, sequence (P16234 24-1089 D842V): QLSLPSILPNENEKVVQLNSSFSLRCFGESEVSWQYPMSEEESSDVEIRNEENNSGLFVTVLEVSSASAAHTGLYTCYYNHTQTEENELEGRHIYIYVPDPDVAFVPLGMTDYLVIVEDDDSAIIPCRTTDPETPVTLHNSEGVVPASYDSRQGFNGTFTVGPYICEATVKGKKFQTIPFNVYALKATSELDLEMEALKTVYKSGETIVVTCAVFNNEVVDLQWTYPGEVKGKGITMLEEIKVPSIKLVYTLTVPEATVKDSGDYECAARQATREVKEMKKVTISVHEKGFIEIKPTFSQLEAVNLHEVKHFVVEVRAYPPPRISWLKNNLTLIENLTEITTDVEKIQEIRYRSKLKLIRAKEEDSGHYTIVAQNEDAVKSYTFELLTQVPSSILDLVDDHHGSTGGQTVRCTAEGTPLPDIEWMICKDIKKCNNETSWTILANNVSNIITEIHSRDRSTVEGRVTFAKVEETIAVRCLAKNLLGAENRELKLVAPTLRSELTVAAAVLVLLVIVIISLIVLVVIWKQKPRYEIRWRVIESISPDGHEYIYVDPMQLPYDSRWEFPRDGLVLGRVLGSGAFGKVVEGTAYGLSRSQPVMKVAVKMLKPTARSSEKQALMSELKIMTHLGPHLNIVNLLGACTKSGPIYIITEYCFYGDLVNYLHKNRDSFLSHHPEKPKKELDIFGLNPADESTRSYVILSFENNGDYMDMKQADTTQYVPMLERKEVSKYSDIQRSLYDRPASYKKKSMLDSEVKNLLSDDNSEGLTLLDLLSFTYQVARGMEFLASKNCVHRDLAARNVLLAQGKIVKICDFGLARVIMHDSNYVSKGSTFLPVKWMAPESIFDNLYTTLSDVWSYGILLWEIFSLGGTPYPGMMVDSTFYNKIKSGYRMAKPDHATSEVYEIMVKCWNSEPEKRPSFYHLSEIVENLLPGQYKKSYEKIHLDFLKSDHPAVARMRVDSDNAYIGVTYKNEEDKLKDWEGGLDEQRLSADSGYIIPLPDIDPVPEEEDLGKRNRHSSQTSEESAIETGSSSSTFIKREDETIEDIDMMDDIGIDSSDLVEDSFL
CYP2D6, sequence (P10635 whole entry): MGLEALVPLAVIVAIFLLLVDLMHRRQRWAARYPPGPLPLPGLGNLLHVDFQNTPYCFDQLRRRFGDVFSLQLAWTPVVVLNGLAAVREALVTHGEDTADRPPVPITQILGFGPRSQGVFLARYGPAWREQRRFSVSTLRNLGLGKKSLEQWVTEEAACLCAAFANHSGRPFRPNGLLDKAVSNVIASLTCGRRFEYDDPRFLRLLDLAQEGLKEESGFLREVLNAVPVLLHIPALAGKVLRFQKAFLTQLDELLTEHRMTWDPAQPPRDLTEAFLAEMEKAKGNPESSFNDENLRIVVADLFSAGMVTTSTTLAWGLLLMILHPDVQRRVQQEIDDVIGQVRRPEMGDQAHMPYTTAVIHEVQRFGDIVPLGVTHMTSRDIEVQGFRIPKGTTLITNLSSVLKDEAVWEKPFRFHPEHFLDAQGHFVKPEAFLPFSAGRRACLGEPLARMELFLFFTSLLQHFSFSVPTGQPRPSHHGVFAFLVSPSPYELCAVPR
wt KIT kinase, sequence (P10721 26-976): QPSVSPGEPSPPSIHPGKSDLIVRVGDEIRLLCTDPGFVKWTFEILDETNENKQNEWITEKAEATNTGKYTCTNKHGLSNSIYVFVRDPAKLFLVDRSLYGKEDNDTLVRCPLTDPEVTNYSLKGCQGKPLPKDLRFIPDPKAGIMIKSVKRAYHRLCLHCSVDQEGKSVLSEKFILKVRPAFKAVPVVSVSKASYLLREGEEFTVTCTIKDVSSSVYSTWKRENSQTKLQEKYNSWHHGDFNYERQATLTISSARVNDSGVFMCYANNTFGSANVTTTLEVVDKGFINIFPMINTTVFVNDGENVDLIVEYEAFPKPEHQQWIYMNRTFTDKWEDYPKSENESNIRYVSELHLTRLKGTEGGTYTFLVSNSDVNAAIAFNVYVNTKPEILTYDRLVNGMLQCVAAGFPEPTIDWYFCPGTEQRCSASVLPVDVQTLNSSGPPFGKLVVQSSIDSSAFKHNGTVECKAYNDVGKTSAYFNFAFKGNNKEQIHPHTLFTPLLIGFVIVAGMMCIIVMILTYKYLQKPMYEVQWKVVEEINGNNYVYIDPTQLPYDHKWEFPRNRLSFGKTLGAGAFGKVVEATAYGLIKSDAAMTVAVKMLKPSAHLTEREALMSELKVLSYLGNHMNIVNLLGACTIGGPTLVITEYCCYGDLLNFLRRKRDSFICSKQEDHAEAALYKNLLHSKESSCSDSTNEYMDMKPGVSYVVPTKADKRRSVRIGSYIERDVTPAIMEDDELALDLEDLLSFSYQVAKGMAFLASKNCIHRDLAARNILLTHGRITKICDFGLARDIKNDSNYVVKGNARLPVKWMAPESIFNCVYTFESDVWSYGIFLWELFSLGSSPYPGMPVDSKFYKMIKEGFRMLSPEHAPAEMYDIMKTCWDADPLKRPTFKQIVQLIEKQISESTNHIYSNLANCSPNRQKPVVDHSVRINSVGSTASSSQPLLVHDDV
CYP2C9, sequence (P11712 whole entry): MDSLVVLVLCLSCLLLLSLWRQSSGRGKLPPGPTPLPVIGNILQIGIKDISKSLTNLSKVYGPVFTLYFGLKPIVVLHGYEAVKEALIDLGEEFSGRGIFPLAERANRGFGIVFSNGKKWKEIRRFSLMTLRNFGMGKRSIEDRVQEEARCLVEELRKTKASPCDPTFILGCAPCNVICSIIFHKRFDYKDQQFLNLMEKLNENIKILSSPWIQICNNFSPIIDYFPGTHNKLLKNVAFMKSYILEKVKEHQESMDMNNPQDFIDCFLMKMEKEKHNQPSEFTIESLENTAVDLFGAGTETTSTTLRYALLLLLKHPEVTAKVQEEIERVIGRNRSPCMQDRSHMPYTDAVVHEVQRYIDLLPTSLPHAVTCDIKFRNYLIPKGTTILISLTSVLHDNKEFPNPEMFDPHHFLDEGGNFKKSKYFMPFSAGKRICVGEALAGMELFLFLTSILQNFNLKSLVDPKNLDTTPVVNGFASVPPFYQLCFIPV
KIT D816V (Homo sapiens (Human), UniProt P10721, D816V), sequence (P10721 26-976 D816V): as the sequence (P10721 26-976) above, with D791V counted along it
KIT D816V (Homo sapiens (Human), UniProt P10721, D816V/V560G), sequence (P10721 26-976 V560G/D816V): as the sequence (P10721 26-976) above, with V535G, D791V counted along it

SMILES	IC50 (CYP2C9) [nM]	clearance ([1]; Sprague-Dawley, blood, rat, iv 1 mg/kg, read-out: Rat IV PK Cl) [mL/min/kg]	bioavailability ([1]; Sprague-Dawley, blood, rat, oral 2.5 mg/kg vs iv 1 mg/kg) [%]	Rat IV PK unbound clearance (Clu) ([1]; iv 1 mg/kg, Clu=Cl/fu,plasma) [mL/min/kg]	IC50 (CYP2D6) [nM]	Kd (wt KIT kinase) [nM]	IC50 (KIT D816V [2]) [nM]	IC50 (PDGFRα D842V) [nM]	IC50 (KIT D816V [3]) [nM]
C[C@](N)(c1ccc(F)cc1)c1cnc(N2CCN(c3ncnn4cc(-c5cnn(CCO)c5)cc34)CC2)nc1 [Compound 4, (S)-2-(4-(4-(4-(5-(1-amino-1-(4-fluorophenyl)ethyl)pyrimidin-2-yl)piperazin-1-yl)pyrrolo[2,1-f][1,2,4]triazin-6-yl)-1H-pyrazol-1-yl)ethanol]	7130	12	80	582	10000	–	–	–	–
CCn1cc(-c2cc3c(N4CCN(c5ncc([C@@](C)(N)c6ccc(F)cc6)cn5)CC4)ncnn3c2)cn1 [Compound 63, reference compound]	–	–	–	–	–	15.1 to 20	< 4.5	≤ 0.3	≤ 0.3
